Measured values published in patent US6617326B2 (dated 2003).

Row | Structure (SMILES) | melting point
1 | CC(C)(F)c1cnn2c(-c3ccc(F)c(-c4ccc(F)cc4C#N)c3)cnc2n1 | 156 to 159 °C
2 | N#Cc1ccc(F)cc1-c1cc(-c2cnc3nc(C(F)(F)F)cnn23)ccc1F | 200 to 201 °C
3 | CC(C)(O)c1cnn2c(-c3ccc(F)c(-c4ccc(F)cc4C#N)c3)cnc2n1 | 215 °C
4 | CC(C)(O)c1cnn2c(-c3cccc(-c4ccc(F)cc4C#N)c3)cnc2n1 | 175 °C
